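In this assay, cells in 96-well plates receive the compound at five concentrations for 48 hours. Endpoints are linearly interpolated between the surrounding concentrations. GI50 = concentration required for 50% inhibition of growth.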 Active and inactive are the calls of the source. Cut-off read from the data, not from the text of the source: active = GI50 up to about 1.1 µM and inactive = higher.
What was measured:
Test in all cases: NCI anticancer screen, dose series, 48 h
HOP-92 = tested on: HOP-92
T47D = tested on: T47D
TK-10 = tested on: TK-10
HL-60 = tested on: HL-60
MCF7 = tested on: MCF7
SF-268 = tested on: SF-268
SK-OV-3 = tested on: SK-OV-3
NCI-H460 = tested on: NCI-H460
SF-295 = tested on: SF-295
HCT-116 = tested on: HCT-116
RXF 393 = tested on: RXF 393
LOX IMVI = tested on: LOX IMVI
SK-MEL-2 = tested on: SK-MEL-2
CAKI-1 = tested on: CAKI-1
OVCAR-3 = tested on: OVCAR-3
DU-145 = tested on: DU-145
M19-MEL = tested on: M19-MEL
UACC-257 = tested on: UACC-257
M14 = tested on: M14
K562 = tested on: K562

SMILES	GI50 (HOP-92)	GI50 (T47D)	GI50 (TK-10)	GI50 (HL-60)	GI50 (MCF7)	GI50 (SF-268)	GI50 (SK-OV-3)	GI50 (NCI-H460)	GI50 (SF-295)	GI50 (HCT-116)	GI50 (RXF 393)	GI50 (LOX IMVI)	GI50 (SK-MEL-2)	GI50 (CAKI-1)	GI50 (OVCAR-3)	GI50 (DU-145)	GI50 (M19-MEL)	GI50 (UACC-257)	GI50 (M14)	GI50 (K562)
CN(C)CC1CCCC(CN2CCCCC2)C1=O (configuration not stated)	1.96 µM (inactive)	2.19 µM (inactive)	8.73 µM (inactive)	2.18 µM (inactive)	1.07 µM (active)	19.5 µM (inactive)	> 62.7 µM (inactive)	> 55.8 µM (inactive)	> 93.5 µM (inactive)	3.01 µM (inactive)	12.8 µM (inactive)	8.26 µM (inactive)	15.7 µM (inactive)	1.53 µM (inactive)	8.63 µM (inactive)	18.2 µM (inactive)	18.8 µM (inactive)	14.6 µM (inactive)	7.73 µM (inactive)	0.172 µM (active)
COc1cccc(C=O)c1C(=O)c1cc(O)ccc1O	17.7 µM (inactive)	–	29.6 µM (inactive)	9.62 µM (inactive)	–	> 40 µM (inactive)	> 100 µM (inactive)	> 100 µM (inactive)	> 100 µM (inactive)	20.1 µM (inactive)	17.9 µM (inactive)	37.8 µM (inactive)	> 100 µM (inactive)	23.7 µM (inactive)	20.2 µM (inactive)	–	30.8 µM (inactive)	20.1 µM (inactive)	17.9 µM (inactive)	> 10 µM (inactive)

Reference: ChEMBL document CHEMBL1201862, “PubChem BioAssay data set” (2004)
